In ChEMBL document CHEMBL4828721, “Substituted dienes prepared from betulinic acid - Synthesis, cytotoxicity, mechanism of action, and pharmacological parameters” (Eur J Med Chem, 2021):

Tested on: BJ
Test: Cytotoxicity against human BJ cells assessed as reduction in cell viability measured after 72 hrs by MTS assay
Assay type: cell-based
Details: not given

| SMILES | IC50 |
| --- | --- |
| C=C(/C=C/c1cccnc1)[C@@H]1CC[C@]2(C(=O)O)CC[C@]3(C)[C@H](CC[C@@H]4[C@@]5(C)CC[C@H](O)C(C)(C)[C@@H]5CC[C@]43C)[C@@H]12 | > 50 µM |
| C=C(/C=C/c1c(F)c(F)c(F)c(F)c1F)[C@@H]1CC[C@]2(C(=O)O)CC[C@]3(C)[C@H](CC[C@@H]4[C@@]5(C)CC[C@H](O)C(C)(C)[C@@H]5CC[C@]43C)[C@@H]12 | > 50 µM |
| C=C(/C=C/c1cccc(Br)c1)[C@@H]1CC[C@]2(C(=O)O)CC[C@]3(C)[C@H](CC[C@@H]4[C@@]5(C)CC[C@H](O)C(C)(C)[C@@H]5CC[C@]43C)[C@@H]12 | > 50 µM |
| C=C(/C=C/c1ccc(Br)cc1F)[C@@H]1CC[C@]2(C(=O)O)CC[C@]3(C)[C@H](CC[C@@H]4[C@@]5(C)CC[C@H](O)C(C)(C)[C@@H]5CC[C@]43C)[C@@H]12 | 43 µM |

Tested on: MRC5
Test: Cytotoxicity against human MRC5 cells assessed as reduction in cell viability measured after 72 hrs by MTS assay
Assay type: cell-based
Details: MRC5, 72 h

| SMILES | IC50 |
| --- | --- |
| C=C(/C=C/c1cccnc1)[C@@H]1CC[C@]2(C(=O)O)CC[C@]3(C)[C@H](CC[C@@H]4[C@@]5(C)CC[C@H](O)C(C)(C)[C@@H]5CC[C@]43C)[C@@H]12 | > 50 µM |
| C=C(/C=C/c1c(F)c(F)c(F)c(F)c1F)[C@@H]1CC[C@]2(C(=O)O)CC[C@]3(C)[C@H](CC[C@@H]4[C@@]5(C)CC[C@H](O)C(C)(C)[C@@H]5CC[C@]43C)[C@@H]12 | 43.2 µM |
| C=C(/C=C/c1cccc(Br)c1)[C@@H]1CC[C@]2(C(=O)O)CC[C@]3(C)[C@H](CC[C@@H]4[C@@]5(C)CC[C@H](O)C(C)(C)[C@@H]5CC[C@]43C)[C@@H]12 | > 50 µM |
| C=C(/C=C/c1ccc(Br)cc1F)[C@@H]1CC[C@]2(C(=O)O)CC[C@]3(C)[C@H](CC[C@@H]4[C@@]5(C)CC[C@H](O)C(C)(C)[C@@H]5CC[C@]43C)[C@@H]12 | 33.7 µM |

Tested on: CEM-DNR
Test: Cytotoxicity against daunorubicin resistant human CEM-DNR cells assessed as reduction in cell viability measured after 72 hrs by MTS assay
Assay type: functional, cell-based
Details: not given

| SMILES | IC50 |
| --- | --- |
| C=C(/C=C/c1cccnc1)[C@@H]1CC[C@]2(C(=O)O)CC[C@]3(C)[C@H](CC[C@@H]4[C@@]5(C)CC[C@H](O)C(C)(C)[C@@H]5CC[C@]43C)[C@@H]12 | 17.4 µM |
| C=C(/C=C/c1c(F)c(F)c(F)c(F)c1F)[C@@H]1CC[C@]2(C(=O)O)CC[C@]3(C)[C@H](CC[C@@H]4[C@@]5(C)CC[C@H](O)C(C)(C)[C@@H]5CC[C@]43C)[C@@H]12 | > 50 µM |
| C=C(/C=C/c1cccc(Br)c1)[C@@H]1CC[C@]2(C(=O)O)CC[C@]3(C)[C@H](CC[C@@H]4[C@@]5(C)CC[C@H](O)C(C)(C)[C@@H]5CC[C@]43C)[C@@H]12 | 35.9 µM |
| C=C(/C=C/c1ccc(Br)cc1F)[C@@H]1CC[C@]2(C(=O)O)CC[C@]3(C)[C@H](CC[C@@H]4[C@@]5(C)CC[C@H](O)C(C)(C)[C@@H]5CC[C@]43C)[C@@H]12 | > 50 µM |

Tested on: A549
Test: Cytotoxicity against human A549 cells assessed as reduction in cell viability measured after 72 hrs by MTS assay
Assay type: functional, cell-based
Details: A549, 72 h

| SMILES | IC50 |
| --- | --- |
| C=C(/C=C/c1cccnc1)[C@@H]1CC[C@]2(C(=O)O)CC[C@]3(C)[C@H](CC[C@@H]4[C@@]5(C)CC[C@H](O)C(C)(C)[C@@H]5CC[C@]43C)[C@@H]12 | 26.2 µM |
| C=C(/C=C/c1c(F)c(F)c(F)c(F)c1F)[C@@H]1CC[C@]2(C(=O)O)CC[C@]3(C)[C@H](CC[C@@H]4[C@@]5(C)CC[C@H](O)C(C)(C)[C@@H]5CC[C@]43C)[C@@H]12 | 32.2 µM |
| C=C(/C=C/c1cccc(Br)c1)[C@@H]1CC[C@]2(C(=O)O)CC[C@]3(C)[C@H](CC[C@@H]4[C@@]5(C)CC[C@H](O)C(C)(C)[C@@H]5CC[C@]43C)[C@@H]12 | 33.1 µM |
| C=C(/C=C/c1ccc(Br)cc1F)[C@@H]1CC[C@]2(C(=O)O)CC[C@]3(C)[C@H](CC[C@@H]4[C@@]5(C)CC[C@H](O)C(C)(C)[C@@H]5CC[C@]43C)[C@@H]12 | 32.5 µM |

Tested on: CCRF-CEM
Test: Cytotoxicity against human CCRF-CEM cells assessed as reduction in cell viability measured after 72 hrs by MTS assay
Assay type: functional, cell-based
Details: not given

| SMILES | IC50 |
| --- | --- |
| C=C(/C=C/c1cccnc1)[C@@H]1CC[C@]2(C(=O)O)CC[C@]3(C)[C@H](CC[C@@H]4[C@@]5(C)CC[C@H](O)C(C)(C)[C@@H]5CC[C@]43C)[C@@H]12 | 11.3 µM |
| C=C(/C=C/c1c(F)c(F)c(F)c(F)c1F)[C@@H]1CC[C@]2(C(=O)O)CC[C@]3(C)[C@H](CC[C@@H]4[C@@]5(C)CC[C@H](O)C(C)(C)[C@@H]5CC[C@]43C)[C@@H]12 | 22.1 µM |
| C=C(/C=C/c1cccc(Br)c1)[C@@H]1CC[C@]2(C(=O)O)CC[C@]3(C)[C@H](CC[C@@H]4[C@@]5(C)CC[C@H](O)C(C)(C)[C@@H]5CC[C@]43C)[C@@H]12 | 8.8 µM |
| C=C(/C=C/c1ccc(Br)cc1F)[C@@H]1CC[C@]2(C(=O)O)CC[C@]3(C)[C@H](CC[C@@H]4[C@@]5(C)CC[C@H](O)C(C)(C)[C@@H]5CC[C@]43C)[C@@H]12 | 22.4 µM |

Tested on: not listed separately
Test: Cytotoxicity against human HCT116 p53-null cells assessed as reduction in cell viability measured after 72 hrs by MTS assay
Assay type: functional, cell-based
Details: not given

| SMILES | IC50 |
| --- | --- |
| C=C(/C=C/c1cccnc1)[C@@H]1CC[C@]2(C(=O)O)CC[C@]3(C)[C@H](CC[C@@H]4[C@@]5(C)CC[C@H](O)C(C)(C)[C@@H]5CC[C@]43C)[C@@H]12 | 32.8 µM |
| C=C(/C=C/c1c(F)c(F)c(F)c(F)c1F)[C@@H]1CC[C@]2(C(=O)O)CC[C@]3(C)[C@H](CC[C@@H]4[C@@]5(C)CC[C@H](O)C(C)(C)[C@@H]5CC[C@]43C)[C@@H]12 | 36.3 µM |
| C=C(/C=C/c1cccc(Br)c1)[C@@H]1CC[C@]2(C(=O)O)CC[C@]3(C)[C@H](CC[C@@H]4[C@@]5(C)CC[C@H](O)C(C)(C)[C@@H]5CC[C@]43C)[C@@H]12 | 26.8 µM |
| C=C(/C=C/c1ccc(Br)cc1F)[C@@H]1CC[C@]2(C(=O)O)CC[C@]3(C)[C@H](CC[C@@H]4[C@@]5(C)CC[C@H](O)C(C)(C)[C@@H]5CC[C@]43C)[C@@H]12 | 33.6 µM |

Tested on: K562
Test: Cytotoxicity against human K562 cells assessed as reduction in cell viability measured after 72 hrs by MTS assay
Assay type: functional, cell-based
Details: K562, 72 h

| SMILES | IC50 |
| --- | --- |
| C=C(/C=C/c1cccnc1)[C@@H]1CC[C@]2(C(=O)O)CC[C@]3(C)[C@H](CC[C@@H]4[C@@]5(C)CC[C@H](O)C(C)(C)[C@@H]5CC[C@]43C)[C@@H]12 | > 50 µM |
| C=C(/C=C/c1c(F)c(F)c(F)c(F)c1F)[C@@H]1CC[C@]2(C(=O)O)CC[C@]3(C)[C@H](CC[C@@H]4[C@@]5(C)CC[C@H](O)C(C)(C)[C@@H]5CC[C@]43C)[C@@H]12 | 29.8 µM |
| C=C(/C=C/c1cccc(Br)c1)[C@@H]1CC[C@]2(C(=O)O)CC[C@]3(C)[C@H](CC[C@@H]4[C@@]5(C)CC[C@H](O)C(C)(C)[C@@H]5CC[C@]43C)[C@@H]12 | 23.6 µM |
| C=C(/C=C/c1ccc(Br)cc1F)[C@@H]1CC[C@]2(C(=O)O)CC[C@]3(C)[C@H](CC[C@@H]4[C@@]5(C)CC[C@H](O)C(C)(C)[C@@H]5CC[C@]43C)[C@@H]12 | 26 µM |

Tested on: HCT-116
Test: Cytotoxicity against human HCT-116 cells assessed as reduction in cell viability measured after 72 hrs by MTS assay
Assay type: functional, cell-based
Details: HCT-116, 72 h

| SMILES | IC50 |
| --- | --- |
| C=C(/C=C/c1cccnc1)[C@@H]1CC[C@]2(C(=O)O)CC[C@]3(C)[C@H](CC[C@@H]4[C@@]5(C)CC[C@H](O)C(C)(C)[C@@H]5CC[C@]43C)[C@@H]12 | 30.9 µM |
| C=C(/C=C/c1c(F)c(F)c(F)c(F)c1F)[C@@H]1CC[C@]2(C(=O)O)CC[C@]3(C)[C@H](CC[C@@H]4[C@@]5(C)CC[C@H](O)C(C)(C)[C@@H]5CC[C@]43C)[C@@H]12 | 32.2 µM |
| C=C(/C=C/c1cccc(Br)c1)[C@@H]1CC[C@]2(C(=O)O)CC[C@]3(C)[C@H](CC[C@@H]4[C@@]5(C)CC[C@H](O)C(C)(C)[C@@H]5CC[C@]43C)[C@@H]12 | 25.3 µM |
| C=C(/C=C/c1ccc(Br)cc1F)[C@@H]1CC[C@]2(C(=O)O)CC[C@]3(C)[C@H](CC[C@@H]4[C@@]5(C)CC[C@H](O)C(C)(C)[C@@H]5CC[C@]43C)[C@@H]12 | 33.5 µM |

Tested on: U2OS
Test: Cytotoxicity against human U2OS cells assessed as reduction in cell viability measured after 72 hrs by MTS assay
Assay type: functional, cell-based
Details: not given

| SMILES | IC50 |
| --- | --- |
| C=C(/C=C/c1cccnc1)[C@@H]1CC[C@]2(C(=O)O)CC[C@]3(C)[C@H](CC[C@@H]4[C@@]5(C)CC[C@H](O)C(C)(C)[C@@H]5CC[C@]43C)[C@@H]12 | 30.9 µM |
| C=C(/C=C/c1c(F)c(F)c(F)c(F)c1F)[C@@H]1CC[C@]2(C(=O)O)CC[C@]3(C)[C@H](CC[C@@H]4[C@@]5(C)CC[C@H](O)C(C)(C)[C@@H]5CC[C@]43C)[C@@H]12 | 30.2 µM |
| C=C(/C=C/c1cccc(Br)c1)[C@@H]1CC[C@]2(C(=O)O)CC[C@]3(C)[C@H](CC[C@@H]4[C@@]5(C)CC[C@H](O)C(C)(C)[C@@H]5CC[C@]43C)[C@@H]12 | 27.6 µM |
| C=C(/C=C/c1ccc(Br)cc1F)[C@@H]1CC[C@]2(C(=O)O)CC[C@]3(C)[C@H](CC[C@@H]4[C@@]5(C)CC[C@H](O)C(C)(C)[C@@H]5CC[C@]43C)[C@@H]12 | 29.7 µM |

Tested on: not listed separately
Test: Cytotoxicity against paclitaxel resistant human K562-Tax cells assessed as reduction in cell viability measured after 72 hrs by MTS assay
Assay type: functional, cell-based
Details: not given

| SMILES | IC50 |
| --- | --- |
| C=C(/C=C/c1cccnc1)[C@@H]1CC[C@]2(C(=O)O)CC[C@]3(C)[C@H](CC[C@@H]4[C@@]5(C)CC[C@H](O)C(C)(C)[C@@H]5CC[C@]43C)[C@@H]12 | 14.2 µM |
| C=C(/C=C/c1c(F)c(F)c(F)c(F)c1F)[C@@H]1CC[C@]2(C(=O)O)CC[C@]3(C)[C@H](CC[C@@H]4[C@@]5(C)CC[C@H](O)C(C)(C)[C@@H]5CC[C@]43C)[C@@H]12 | > 50 µM |
| C=C(/C=C/c1cccc(Br)c1)[C@@H]1CC[C@]2(C(=O)O)CC[C@]3(C)[C@H](CC[C@@H]4[C@@]5(C)CC[C@H](O)C(C)(C)[C@@H]5CC[C@]43C)[C@@H]12 | 32.8 µM |
| C=C(/C=C/c1ccc(Br)cc1F)[C@@H]1CC[C@]2(C(=O)O)CC[C@]3(C)[C@H](CC[C@@H]4[C@@]5(C)CC[C@H](O)C(C)(C)[C@@H]5CC[C@]43C)[C@@H]12 | > 50 µM |
